Where two headings read alike, the source gives them in different places.
Columns and labels:
[1] = molecular target: T1, full-length NS3/NS4A-2 (HCV NS3 protease) (Hepatitis C virus genotype 1a, UniProt P27958); assay: NS3-NS4 protease assay / NS3 inhibition assay (RETS1 substrate, fluorescence kinetic read); format: biochemical
T1 construct: Recombinant E. coli or Baculovirus full-length NS3 was diluted to 3.33 μM with assay buffer; made in house; host or cells: E. coli or baculovirus (BV) expression system
T1 sequence (P27958 1027-1657): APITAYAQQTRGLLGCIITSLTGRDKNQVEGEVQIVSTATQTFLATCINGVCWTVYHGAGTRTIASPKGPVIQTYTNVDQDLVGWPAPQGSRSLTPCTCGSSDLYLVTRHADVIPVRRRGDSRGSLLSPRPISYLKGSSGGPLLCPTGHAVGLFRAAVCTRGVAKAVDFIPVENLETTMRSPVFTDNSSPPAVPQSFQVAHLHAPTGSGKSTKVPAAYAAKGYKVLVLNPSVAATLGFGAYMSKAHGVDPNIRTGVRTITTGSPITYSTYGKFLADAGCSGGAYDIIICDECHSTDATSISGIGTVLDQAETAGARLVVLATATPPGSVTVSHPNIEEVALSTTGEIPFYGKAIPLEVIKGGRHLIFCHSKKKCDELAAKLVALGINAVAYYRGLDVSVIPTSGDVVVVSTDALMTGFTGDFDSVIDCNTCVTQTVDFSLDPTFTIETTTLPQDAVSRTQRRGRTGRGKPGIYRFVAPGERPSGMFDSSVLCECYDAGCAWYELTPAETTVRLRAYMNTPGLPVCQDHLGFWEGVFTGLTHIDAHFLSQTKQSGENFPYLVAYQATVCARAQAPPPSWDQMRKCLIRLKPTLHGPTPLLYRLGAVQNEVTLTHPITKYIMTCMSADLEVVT
In short: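 Ki values come from IC50 fits corrected via Ki=IC50/(1+[S]/Km), with Km 2.03 μM for E. coli and 1.74 μM for baculovirus full-length NS3. Enzyme (2 or 3 nM NS3, respectively, complexed with NS4A-2) sat with compound, top concentration 50 microM, for 10 min at room temperature. Cleavage of RETS1 (8 μM working solution) was then followed by fluorescence (335/495 nm) over 30 min.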

[2] = system: HCV sub-genomic replicon in GS4.3 cells (HuH-7 hepatoma cells); assay: Quantitation by ELISA of Neomycin phosphotransferase II (NPTII) in the HCV sub-genomic replicon, GS4.3; format: cell-based, hepatitis C virus; settings: Hepatitis C virus, Huh-7
In short: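 Replicon-bearing HuH-7 (GS4.3) cells were exposed to compounds for 72 h in G418-free medium, top final concentration 10 μM, 1% DMSO. Lysates went to an NPTII ELISA read at 450 nm. Signal was normalised to DMSO-treated wells and EC50 was derived by four-parameter curve fitting.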

[3] = GS4.3 cells, 72 h incubation, NPTII ELISA, read-out: Replicon EC50
[4] = recombinant E. coli or Baculovirus full-length NS3 with NS4A-2, read-out: NS3-NS4 IC50

CC(C)(C)OC(=O)N[C@H]1CCOCC/C=C\[C@@H]2C[C@@]2(C(=O)NS(=O)(=O)C2CC2)NC(=O)[C@@H]2C[C@@H](OC(=O)N3Cc4cccc(F)c4C3)CN2C1=O [Compound 1027, (2R,6S,13aS,14aR,16aS,Z)-6-(tert-butoxycarbonylamino)-14a-(cyclopropylsulfonylcarbamoyl)-5,16-dioxo-2,3,5,6,7,8,10,11,13a,14,14a,15,16,16a-tetradecahydro-1H-cyclopropa(j)pyrrolo[1,2-f][1,6,9]oxadiazacyclopentadecin-2-yl 4-fluoroisoindoline-2-carboxylate]
IC50 [1]: < 100 nM
EC50 [2, 3]: < 100 nM

O=C(N[C@H]1CCC(F)(F)CC/C=C\[C@@H]2C[C@@]2(C(=O)NS(=O)(=O)C2CC2)NC(=O)[C@@H]2C[C@@H](OC(=O)N3Cc4cccc(F)c4C3)CN2C1=O)OC1CCCC1 [Compound 1004]
IC50 [1, 4]: < 100 nM
EC50 [2, 3]: < 100 nM

CC(C)(C)OC(=O)N[C@H]1CCCCC/C=C\[C@@H]2C[C@@]2(C(=O)NS(=O)(=O)N2CCOCC2)NC(=O)[C@@H]2C[C@@H](OC(=O)N3Cc4cccc(Cl)c4C3)CN2C1=O [Compound 207]
IC50 [1, 4]: < 100 nM
EC50 [2, 3]: < 100 nM

O=C(N[C@H]1CCCCC/C=C\[C@@H]2C[C@@]2(C(=O)NS(=O)(=O)C2CC2)NC(=O)[C@@H]2C[C@@H](OC(=O)N3Cc4ccncc4C3)CN2C1=O)OC1CCCC1 [Compound 155]
IC50 [1, 4]: < 100 nM
EC50 [2, 3]: < 1000 nM

CC(C)(C)c1c(N[C@H]2CCCCC/C=C\[C@@H]3C[C@@]3(C(=O)NS(=O)(=O)C3CC3)NC(=O)[C@@H]3C[C@@H](OC(=O)N4Cc5cccc(F)c5C4)CN3C2=O)c(=O)c1=O [Compound 261]
IC50 [1, 4]: < 100 nM
EC50 [2, 3]: < 1000 nM

CC(C)(C)OC(=O)N[C@H]1CCCCC/C=C\[C@@H]2C[C@@]2(C(=O)NCC(F)F)NC(=O)[C@@H]2C[C@@H](OC(=O)N3Cc4cccc(F)c4C3)CN2C1=O [Compound 612]
IC50 [1, 4]: < 1000 nM
EC50 [2, 3]: < 1000 nM

CN1CCN(c2ccc3c(c2)CN(C(=O)O[C@@H]2C[C@H]4C(=O)N[C@]5(C(=O)O)C[C@H]5/C=C\CCCCC[C@H](NC(=O)OC(C)(C)C)C(=O)N4C2)C3)CC1 [Compound 175]
IC50 [1, 4]: < 100 nM
EC50 [2, 3]: > 10000 nM

O=C1N[C@]2(C(=O)NS(=O)(=O)C3CC3)C[C@H]2/C=C\CCCCC[C@H](NC(=O)C2(O)CC2)C(=O)N2C[C@H](OC(=O)N3Cc4cccc(F)c4C3)C[C@@H]12 [Compound 249]
IC50 [1, 4]: < 100 nM
EC50 [2, 3]: < 1000 nM

CC(C)(C)OC(=O)N[C@H]1CCCCC/C=C\[C@@H]2C[C@@]2(C(=O)NS(=O)(=O)C2CC2)NC(=O)[C@@H]2C[C@@H](OC(=O)N3Cc4c(Cl)ccc(Cl)c4C3)CN2C1=O [Compound 145]
IC50 [1, 4]: < 100 nM
EC50 [2, 3]: < 100 nM

O=C(N[C@H]1CCCCC/C=C\[C@@H]2C[C@@]2(C(=O)NS(=O)(=O)c2ccccc2)NC(=O)[C@@H]2C[C@@H](OC(=O)N3CCc4ccccc4C3)CN2C1=O)OC1CCCC1 [Compound 117]
IC50 [1, 4]: < 100 nM
EC50 [2, 3]: < 100 nM

CC(C)(C)OC(=O)N[C@H]1CCCCC/C=C\[C@@H]2C[C@@]2(C(=O)NC2CC2)NC(=O)[C@@H]2C[C@@H](OC(=O)N3Cc4cccc(F)c4C3)CN2C1=O [Compound 609]
IC50 [1, 4]: < 100 nM
EC50 [2, 3]: < 1000 nM

CC(C)(C)OC(=O)N[C@H]1CCCCC/C=C\[C@@H]2C[C@@]2(C(=O)NS(=O)(=O)c2cc(Cl)sc2Cl)NC(=O)[C@@H]2C[C@@H](OC(=O)N3Cc4cccc(F)c4C3)CN2C1=O [Compound 162]
IC50 [1, 4]: < 100 nM
EC50 [2, 3]: < 100 nM

O=C(Cc1ccc(C(F)(F)F)cc1)N[C@H]1CCCCC/C=C\[C@@H]2C[C@@]2(C(=O)NS(=O)(=O)C2CC2)NC(=O)C2CCCN2C1=O (stereo partly drawn) [Compound 2142]
IC50 [1, 4]: < 10000 nM
EC50 ([2]; Table 26, read-out: EC50): > 10000 nM

CC(C)(C)OC(=O)N[C@H]1CCCCC/C=C\[C@@H]2C[C@@]2(C(N)=O)NC(=O)[C@@H]2C[C@@H](OC(=O)N3Cc4cccc(F)c4C3)CN2C1=O [Compound 648]
IC50 [1, 4]: < 1000 nM
EC50 [2, 3]: > 10000 nM

O=C(CCC(F)(F)F)N[C@H]1CCCCC/C=C\[C@@H]2C[C@@]2(C(=O)NS(=O)(=O)C2CC2)NC(=O)[C@@H]2C[C@@H](OC(=O)N3Cc4cccc(Cl)c4C3)CN2C1=O [Compound 143]
IC50 [1, 4]: < 100 nM
EC50 [2, 3]: < 100 nM

CC(C)(C)OC(=O)N[C@H]1CCCCC/C=C\[C@@H]2C[C@@]2(C(=O)NCc2ccc(C(O)C(F)(F)F)cc2)NC(=O)[C@@H]2C[C@@H](OC(=O)N3Cc4cccc(F)c4C3)CN2C1=O (stereo partly drawn) [Compound 606]
IC50 [1, 4]: < 1000 nM
EC50 [2, 3]: < 1000 nM

O=C(N[C@H]1CCCCC/C=C\[C@@H]2C[C@@]2(C(=O)NS(=O)(=O)N2CCC2)NC(=O)[C@@H]2C[C@@H](OC(=O)N3CCc4ccccc4C3)CN2C1=O)OC1CCCC1 [Compound 233]
IC50 [1, 4]: < 100 nM
EC50 [2, 3]: < 100 nM

CC(C)(C)CNC(=O)[C@@]12C[C@H]1/C=C\CCCCC[C@H](NC(=O)OC(C)(C)C)C(=O)N1C[C@H](OC(=O)N3Cc4cccc(F)c4C3)C[C@H]1C(=O)N2 [Compound 616]
IC50 [1, 4]: < 1000 nM
EC50 [2, 3]: < 1000 nM

CC(C)(C)OC(=O)N[C@H]1CCCCC/C=C\[C@@H]2C[C@@]2(C(=O)Nc2cc(C3CC3)[nH]n2)NC(=O)[C@@H]2C[C@@H](OC(=O)N3Cc4cccc(F)c4C3)CN2C1=O [Compound 630]
IC50 [1, 4]: < 1000 nM
EC50 [2, 3]: < 10000 nM

CNC(=O)[C@H](NC(=O)[C@@]12C[C@H]1/C=C\CCCCC[C@H](NC(=O)OC(C)(C)C)C(=O)N1C[C@H](OC(=O)N3Cc4cccc(F)c4C3)C[C@H]1C(=O)N2)c1ccc(F)cc1 [Compound 632]
IC50 [1, 4]: < 1000 nM
EC50 [2, 3]: < 10000 nM

CN(Cc1ccccc1)C(=O)O[C@@H]1C[C@H]2C(=O)N[C@]3(C(=O)NS(=O)(=O)C4CC4)C[C@H]3/C=C\CCCCC[C@H](NC(=O)OC(C)(C)C)C(=O)N2C1 [Compound 245]
IC50 [1, 4]: < 100 nM
EC50 [2, 3]: < 1000 nM

O=C1N[C@]2(C(=O)NS(=O)(=O)C3CC3)C[C@H]2/C=C\CCCCC[C@H](Nc2nccs2)C(=O)N2C[C@H](OC(=O)N3Cc4cccc(F)c4C3)C[C@@H]12 [Compound 924]
IC50 [1, 4]: < 100 nM
EC50 [2, 3]: < 100 nM

CC(C)(C)c1csc(N[C@H]2CCCCC/C=C\[C@@H]3C[C@@]3(C(=O)NS(=O)(=O)C3CC3)NC(=O)[C@@H]3C[C@@H](OC(=O)N4Cc5cccc(F)c5C4)CN3C2=O)n1 [Compound 925]
IC50 [1, 4]: < 100 nM
EC50 [2, 3]: < 100 nM

CC(C)(C)OC(=O)N[C@H]1COCCCCC[C@@H]2C[C@@]2(C(=O)NS(=O)(=O)C2CC2)NC(=O)[C@@H]2C[C@@H](OC(=O)N3Cc4cccc(F)c4C3)CN2C1=O [Compound 1022, (2R,6S,13aR,14aR,16aS)-6-(tert-butoxycarbonylamino)-14a-(cyclopropylsulfonylcarbamoyl)-5,16-dioxohexadecahydro-1H-cyclopropa(i)pyrrolo[1,2-e][1,5,8]oxadiazacyclopentadecin-2-yl 4-fluoroisoindoline-2-carboxylate]
IC50 [1, 4]: < 100 nM
EC50 [2, 3]: < 100 nM

CC(C)OC(=O)N[C@H]1CCCCC/C=C\[C@@H]2C[C@@]2(C(=O)NC#N)NC(=O)C2C[C@@H](OC(=O)N3Cc4cccc(F)c4C3)CN2C1=O (stereo partly drawn) [Compound 639]
IC50 [1, 4]: < 1000 nM
EC50 [2, 3]: > 10000 nM

CC(C)(C)OC(=O)N[C@H]1CCCCC/C=C\[C@@H]2C[C@@]2(C(=O)NS(=O)(=O)N2CCCC2)NC(=O)[C@@H]2C[C@@H](OC(=O)N3Cc4cccc(Cl)c4C3)CN2C1=O [Compound 214]
IC50 [1, 4]: < 100 nM
EC50 [2, 3]: < 100 nM

O=C(CCC(F)(F)F)N[C@H]1CCCCC/C=C\[C@@H]2C[C@@]2(C(=O)O)NC(=O)[C@@H]2C[C@@H](OC(=O)N3Cc4ccccc4C3)CN2C1=O [Compound 136]
IC50 [1, 4]: < 100 nM
EC50 [2, 3]: > 10000 nM
